Columns and labels:
[1] = biological target: T1, Glycogen synthase kinase-3 beta [7-25] (Oryctolagus cuniculus, UniProt G1T8E2); assay: GSK-3 Inhibition Assay; conditions: 37 °C
T1 construct: 7-25
Protocol: 32P incorporation was measured with a scintillation counter. The GSK-3 beta activity was expressed in picomoles of phosphate incorporated in GS-1 per 20 min or in percentage of maximal activity.

[2] = biological target: Protein kinase C beta type (Rattus norvegicus, UniProt P68403); assay: PKC Inhibition Assay; conditions: pH 7.5; 37 °C
Protocol: Kinase activities were assayed in buffers containing substrate, enzyme, and inhibitor at 37 °C in the presence of 10 uM ATP/ [gamma-32P] ATP. 32P incorporation was measured with a scintillation counter. The IC50 is the inhibitor concentration at which a 50% of enzyme inhibition occurs.

[3] = biological target: cAMP-dependent protein kinase catalytic subunit alpha (Bos taurus, UniProt P00517); assay: Kinase Inhibition Assay; conditions: pH 7.5; 37 °C

Protein kinase C beta type, sequence (P68403 whole entry): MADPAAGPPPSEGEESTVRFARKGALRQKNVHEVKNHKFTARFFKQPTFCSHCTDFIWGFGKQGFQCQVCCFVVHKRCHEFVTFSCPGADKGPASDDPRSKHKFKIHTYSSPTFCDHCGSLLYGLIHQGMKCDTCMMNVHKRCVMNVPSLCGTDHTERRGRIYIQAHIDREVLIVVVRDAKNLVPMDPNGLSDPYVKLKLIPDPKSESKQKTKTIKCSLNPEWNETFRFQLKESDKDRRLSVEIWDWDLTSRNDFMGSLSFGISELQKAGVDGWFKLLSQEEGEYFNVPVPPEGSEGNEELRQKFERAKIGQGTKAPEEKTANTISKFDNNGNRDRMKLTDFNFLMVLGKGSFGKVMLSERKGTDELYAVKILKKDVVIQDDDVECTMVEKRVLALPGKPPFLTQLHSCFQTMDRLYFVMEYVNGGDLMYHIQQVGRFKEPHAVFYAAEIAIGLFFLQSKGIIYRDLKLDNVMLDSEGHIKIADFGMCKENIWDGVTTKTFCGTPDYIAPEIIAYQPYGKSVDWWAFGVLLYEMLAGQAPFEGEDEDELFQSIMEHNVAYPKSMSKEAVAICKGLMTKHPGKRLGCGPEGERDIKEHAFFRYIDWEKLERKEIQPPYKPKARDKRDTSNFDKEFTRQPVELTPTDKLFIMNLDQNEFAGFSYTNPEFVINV

| IC50 ([1]; pH 7.5) | IC50 [1] | SMILES | other results |
| --- | --- | --- | --- |
| 7 µM | – | CCn1sc(=O)n(Cc2ccccc2)c1=O | – |
| 10 µM | – | O=c1sn(Cc2ccccc2)c(=O)n1Cc1ccccc1 [2,4-Dibenzyl-1,2,4-thiadiazolidine-3,5-dione] | – |
| – | 10 µM | O=c1sn(Cc2ccccc2)c(=S)n1Cc1ccccc1 [2,4-Dibenzyl-5-oxo-1,2,4-thiadiazolidine-3-thione] | – |
| 25 µM | – | CCn1sc(=O)n(CC)c1=O [2,4-Diethyl-1,2,4-thiadiazolidine-3,5-dione] | – |
| – | 20 µM | CCn1sc(=O)n(CC)c1=S [2,4-diethyl-3-thioxo-1,2,4-thiadiazolidin-5-one] | – |
| – | 8 µM | O=c1sn(-c2ccccc2)c(=S)n1-c1ccccc1 [2,4-diphenyl-5-oxo-1,2,4-thiadiazolidine-3-thione] | – |
| 10 µM | – | CCn1c(=O)sn(C2CCCCC2)c1=O [2-Cyclohexyl-4-ethyl-1,2,4-thiadiazolidine-3,5-dione] | – |
| – | 65 µM | CCn1sc(=N)n(-c2ccccc2)c1=O [2-Ethyl-3-oxo-4-phenyl-1,2,4-thiadiazolidin-5-imine] | – |
| – | 3 µM | Cn1sc(=O)n(-c2cccc3ccccc23)c1=O [2-methyl-4-(1-naphthyl)-1,2,4-thiadiazolidine-3,5-dione] | – |
| – | 6 µM | Cn1sc(=O)n(-c2ccc(C(F)(F)F)cc2)c1=O [2-methyl-4-[4-(trifluoromethyl)phenyl]-1,2,4-thiadiazolidine-3,5-dione] | – |
| 2 µM | – | Cn1sc(=O)n(-c2ccccc2)c1=O [2-methyl-4-phenyl-1,2,4-thiadiazolidine-3,5-dione] | – |
| 6 µM | – | Cn1sc(=O)n(-c2ccccc2Br)c1=O [4-(2-Bromophenyl)-2-methyl-1,2,4-thiadiazolidine-3,5-dione] | – |
| 4 µM | – | Cn1sc(=O)n(-c2cccc(Br)c2)c1=O [4-(3-Bromophenyl)-2-methyl-1,2,4-thiadiazolidine-3,5-dione] | – |
| 3 µM | – | Cn1sc(=O)n(-c2ccc(Br)cc2)c1=O [4-(4-Bromophenyl)-2-methyl-1,2,4-thiadiazolidine-3,5-dione] | – |
| – | 4 µM | Cn1sc(=O)n(-c2ccc(Cl)cc2)c1=O [4-(4-Chlorophenyl)-2-methyl-1,2,4-thiadiazolidine-3,5-dione] | – |
| – | 4 µM | Cn1sc(=O)n(-c2ccc(F)cc2)c1=O [4-(4-Fluorophenyl)-2-methyl-1,2,4-thiadiazolidine-3,5-dione] | – |
| – | 5 µM | Cc1ccc(-n2c(=O)sn(C)c2=O)cc1 [4-(4-Methylphenyl)-2-methyl-1,2,4-thiadiazolidine-3,5-dione] | – |
| – | 6 µM | CCn1sc(=O)n(Cc2ccccc2)c1=S [4-Benzyl-2-ethyl-5-oxo-1,2,4-thiadiazolidine-3-thione] | – |
| – | – | Cn1sc(=O)n(Cc2ccccc2)c1=O [4-Benzyl-2-methyl-1,2,4-thiadiazolidine-3,5-dione] | IC50 [2]: > 100 µM; IC50 [3]: > 100 µM |
| > 100 µM | – | Cn1sc(=O)n(C2CCCCC2)c1=O [4-Cyclohexyl-2-methyl-1,2,4-thiadiazolidine-3,5-dione] | – |
| 5 µM | – | CCn1c(=O)sn(C)c1=O [4-Ethyl-2-methyl-1,2,4-thiadiazolidine-3,5-dione] | – |
| 10 µM | – | CCCn1sc(=O)n(CC)c1=O [4-Ethyl-2-propyl-1,2,4-thiadiazolidine-3,5-dione] | – |
| 35 µM | – | CCn1c(=O)sn(C(C)C)c1=O [4-ethyl-2-(propan-2-yl)-1,2,4-thiadiazolidine-3,5-dione] | – |
| – | 10 µM | CCn1c(=S)n(C)s/c1=N\c1cccnc1 [(5Z)-4-ethyl-2-methyl-5-(pyridin-3-ylimino)-1,2,4-thiadiazolidine-3-thione] | – |
| – | 100 µM | CCOC(=O)/N=c1\sn(C(=O)OCC)c(=S)n1-c1ccccc1 [ethyl (5Z)-5-[(ethoxycarbonyl)imino]-4-phenyl-3-sulfanylidene-1,2,4-thiadiazolidine-2-carboxylate] | – |
| – | 75 µM | CCNC(=O)/N=c1\sn(CC)c(=O)n1-c1ccccc1 [ethyl-(2-ethyl-3-oxo-4-phenyl-1,2,4-thiadiazolidin-5-ylidene)urea] | – |

— BindingDB's records for doi:10.1021/jm011020u (Instituto De Quimica Medica (Csic), 2002)
